Key:
A172 [1] = assay: MTT assay, A172; format: cell-based; settings: Homo sapiens, A 172; A172, 24 h of incubation; read-out: IC50 values ± SEM, MTT assay
Protocol: (§1) Human glioblastoma cell lines (A172 CRL-1620™, U-87 MG HTB-14™, U-118 MG HTB-15™, T98G CRL-1690™) and the mouse astrocyte cell line (C8-D1A CRL-2541™) were obtained from the American Type Culture Collection (ATCC, Manassas, VA, USA). The cell lines were cultured in complete medium: DMEM (Corning, Kennebunk, ME, USA) for C8-D1A and T98G, and EMEM (ATCC, Manassas, VA, USA) for A172, U-87 MG, U118MG. The media were supplemented with 10% foetal bovine serum (Eurx, Gdansk, Poland) and 1% penicillin-streptomycin solution (Corning, Kennebunk, ME, USA). Cells were cultured in cell culture flasks (Sarstedt, Numbrecht, Germany) at 37 °C in 5% CO2. For experiments, cells were washed with phosphate-buffered saline without calcium and magnesium (Corning, Kennebunk, ME, USA) and treated with 0.05% trypsin and 0.02% EDTA (Corning, Kennebunk, ME, USA). Cells were counted using a Sceptre 3.0 cell counter (Merck Millipore, Burlington, MA, USA) prior to seeding into plates. For 6-well plates, 5 x 10^5 cells/mL were seeded, while for 96-well plates (Sarstedt, Numbrecht, Germany), 1 x 10^5 cells/mL were seeded in 100 μL of the medium.
(§2) The cell lines were seeded in 96-well plates and cultured according to the methodology described in the previous section. Cells were then treated with the novel derivatives MM118 and MM119 and the reference compound temozolomide (TMZ) (Sigma-Aldrich, St. Louis, MO, USA) at concentrations of 0.1, 0.25, 0.5, 1.0, 2.5, 5.0, and 10.0 μM for 24 h. The MTT assay was performed using a solution of 3–(4,5-dimethyl-2-thiazolyl)-2,5-diphenyl-2H-tetrazolium bromide (Sigma-Aldrich, St. Louis, MO, USA) at a concentration of 5 mg/mL in phosphate-buffered saline without calcium and magnesium (Corning, Kennebunk, ME, USA). After 24 h incubation with test compounds, 10 μL MTT solution was added to each well, and cells were incubated for another 2 h at 37 °C. The cells were then lysed in 100 μL lysis buffer (25 mM HCl, 2% acetic acid, 3% DMF, and 5% SDS, adjusted to pH 4.7). Absorbance was measured at 570 nm using an Absorbance 96 microplate reader (Byonoy GmbH, Hamburg, Germany).

U-87 MG [2] = assay: MTT assay, U-87 MG; format: cell-based; settings: Homo sapiens, 24 h of incubation, read-out: IC50 values ± SEM, MTT assay
Protocol: as §1, §2

U-118 MG = assay: MTT assay, U-118 MG; format: cell-based; settings: Homo sapiens, 24 h of incubation, read-out: IC50 values ± SEM, MTT assay
Protocol: as §1, §2

A172 [3] = assay: LDH release assay, A172; format: cell-based, human; settings: A172, 1.5 μM, 24 h
Protocol: Analogous to the procedure described in the previous section, A172 and U-87 MG cells were cultured and plated in 96-well plates. The LDH-Cytotoxicity Assay Kit II (ab65393) (Abcam, Cambridge, UK) was used to assess cytotoxicity according to the manufacturer’s protocol. The test compounds MM118 and MM119 and the reference compound temozolomide (TMZ) were added to the cells at a concentration of 1.5 μM. After 24 h of exposure, the medium was collected, centrifuged and 10 μL of each sample was transferred to a new 96-well plate. In the next step, 100 μL of LDH Reaction Mix was added to each well and incubated for 30 min at room temperature. Absorbance was measured at 450 nm using an Absorbance 96 microplate reader (Byonoy GmbH, Hamburg, Germany). Cytotoxicity was calculated according to the formula provided by the manufacturer: Cytotoxicity (%) = ((Test Sample – Low Control)/(High Control – Low Control)) X 100, where Low Control - control without added compound, High Control with added 10 µL Lysis Buffer II.

U-87 MG [4] = assay: Mitochondrial membrane potential (JC-1), U-87 MG; format: cell-based, human; settings: 1.5 μM, 24 h
Protocol: The impact of the novel compounds on mitochondrial membrane potential (ΔΨm) was examined. […] In this study, the fluorochrome JC-1 was employed, which, in cells with normally functioning mitochondria, aggregates and accumulates in the hyperpolarized mitochondrial membrane, emitting a red colour. Conversely, when the membrane is damaged, JC-1 breaks down into monomers, emitting green fluorescence. […] For the U-87 MG cell line, these parameters were equal to 54.88 ± 8.36% and 56.13 ± 13.97% of the cell population.
JC-1 (1,1′,3,3′-Tetraethyl-5,5′,6,6′-tetrachloroimidacarbocyanine iodide) (BD Biosciences, San Diego, CA, USA), a lipophilic fluorochrome, was used to evaluate changes in mitochondrial membrane potential. After treatment, cancer cells at a concentration of 1 × 10^6 cells/mL were collected and rinsed twice with PBS. Then, 500 μL JC-1 working solution was added to each sample according to the manufacturer’s protocol. The samples were then incubated for 15 min at 37 °C in a CO2 incubator. After incubation, samples were washed twice with an assay buffer, and 500 μL of each sample was transferred to a BD FACSCanto II flow cytometer (Becton Dickinson Biosciences, San Jose, CA, USA) for analysis, with 10,000 events recorded per sample. Data were analysed using FACSDiva software version 6.1.3 (BD Biosciences Systems, San Jose, CA, USA).

caspase 9 = assay: Caspase 9 activation (FAM FLICA), A172; format: cell-based, human; settings: A172, 1.5 μM, 24 h
Protocol: (§3) The activity of caspase 1, caspase 3/7, caspase 8, and caspase 9 was evaluated through the utilisation of FAM FLICA Caspase Assays (ImmunoChemistry Technologies, Bloomington, MN, USA), in accordance with the established protocols. Following treatment with the compounds, the cells were collected at a concentration of 1 × 10^6 cells/mL, washed twice with cold PBS, and resuspended in 290 μL of PBS. The subsequent step involved the addition of 10 μL of 30X FLICA solution, followed by incubation at 37 °C in the absence of light for one hour. Then, 2 ml of Apoptosis Wash Buffer was added, and the samples were washed twice. A 300 μL aliquot of each sample was transferred to a BD FACSCanto II flow cytometer (Becton Dickinson Biosciences, San Jose, CA, USA), where 10,000 events per sample were recorded. The resulting data was then analysed using FACSDiva software, version 6.1.3 (BD Biosciences Systems, San Jose, CA, USA).

caspase 3/7 = assay: Caspase 3/7 activation (FAM FLICA), A172; format: cell-based, human; settings: A172, 1.5 μM, 24 h
Protocol: as §3

| IC50 (U-87 MG [2]) [nM] | Compound | IC50 (A172 [1]) [nM] | IC50 (U-118 MG) [nM] | LDH release, cytotoxicity (A172 [3]) [%] | Decreased ΔΨm (cell population) (U-87 MG [4]) [%] | Active caspase 9 (cell population) (caspase 9) | Active caspase 3/7 (cell population) (caspase 3/7) |
| --- | --- | --- | --- | --- | --- | --- | --- |
| 1190 ± 422 | CCC(CO)NS(=O)(=O)c1ccc(-n2nc(C)c3nc4nnnn4nc32)cc1 (stereo in doubt) [MM119, N-(S)-(1-hydroxy-but-2-yl)-4-[7-methyl-5H-pyrazolo[4,3-e]tetrazolo[1,5-b][1]^,[2]^,[4]triazin-5-yl)]benzenesulfonamide] | 1240 ± 386 | 670 ± 173 | 13.44 ± 2.87 | 56.13 ± 13.97 | 25.50 ± 6.04% | 25.60 ± 4.29% |
| > 10000 | Cn1nnc2c(C(N)=O)ncn2c1=O [TMZ, temozolomide, reference compound] | > 10000 | > 10000 | −0.61 ± 2.02 | 7.05 ± 2.85 | no significant differences | no significant differences |
| 992 ± 370 | CCC(CO)NS(=O)(=O)c1ccc(-n2nc(C)c3nc4nnnn4nc32)cc1 (stereo in doubt) [MM118, N-(R)-(1-hydroxy-but-2-yl)-4-[7-methyl-5H-pyrazolo[4,3-e]tetrazolo[1,5-b][1]^,[2]^,[4]triazin-5-yl)]benzenesulfonamide] | 889 ± 243 | 471 ± 191 | 16.59 ± 1.71 | 54.88 ± 8.36 | 31.55 ± 8.07% | 42.40 ± 12.59% |

— article PMC12679848, “Sulphonamide derivatives with a triazine core as novel inducers of apoptosis and pyroptosis in glioblastoma multiforme cells” (Journal of Enzyme Inhibition and Medicinal Chemistry, 2025)
